From BindingDB's records for doi:10.1021/acs.jmedchem.5b01559 (University of Siena, 2016) come the findings set out here.

One may read the Ki as the equilibrium dissociation constant of an inhibitor or competing ligand from its target.

In this experiment the target is Cannabinoid receptor 2 (Homo sapiens, UniProt P34972). The experiment is described as follows: Displacement of [3H]-CP-55940 from human recombinant CB2 receptor expressed in HEK293 cells after 90 mins by Competition binding assay. A general note: Loss of bound radioactivity is the signal in a displacement assay; it reports binding, not function.
Cannabinoid receptor 2, sequence (P34972 whole entry): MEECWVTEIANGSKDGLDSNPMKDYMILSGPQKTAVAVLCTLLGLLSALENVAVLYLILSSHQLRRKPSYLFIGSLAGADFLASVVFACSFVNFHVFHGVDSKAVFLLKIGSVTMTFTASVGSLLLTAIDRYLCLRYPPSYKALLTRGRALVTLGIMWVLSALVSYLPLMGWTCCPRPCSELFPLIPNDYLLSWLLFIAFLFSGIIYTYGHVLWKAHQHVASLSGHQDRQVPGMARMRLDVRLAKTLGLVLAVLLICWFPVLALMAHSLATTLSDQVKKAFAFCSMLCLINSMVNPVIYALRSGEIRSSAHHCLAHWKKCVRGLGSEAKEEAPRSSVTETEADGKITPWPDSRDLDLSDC
Consider `O=C(NCC1CCCCC1)c1c(O)c2ccccc2n(CCCCO)c1=O`, for which the Ki turned out to be 41 nM.

As to `O=C(NCc1ccc(F)cc1)c1c(O)c2cc(-c3ccco3)ccc2n(CCCCO)c1=O`, the Ki is 253 nM.

As for `O=C(NC12CC3CC(CC(C3)C1)C2)c1cn(CCN2CCS(=O)(=O)CC2)c2cc(F)ccc2c1=O`, the Ki amounted to 246 nM.

As for `CN(C)CCn1cc(C(=O)NC23CC4CC(CC(C4)C2)C3)c(=O)c2ccc(F)cc21`, the Ki stood at 60 nM.

`CCCCCn1c(=O)c(C(=O)NC23CC4CC(CC(C4)C2)C3)c(O)c2cc(C(C)C)ccc21`: the inhibition constant (Ki) is 0.53 nM.

For the molecule `CC(C)c1ccc2c(c1)c(=O)c(C(=O)NC13CC4CC(CC(C4)C1)C3)cn2CCN(C)C`, the Ki was found to be 146 nM.

For the molecule `CCCCCn1c(=O)c(C(=O)NC23CC4CC(CC(C4)C2)C3)c(O)c2ccc(F)cc21`, the Ki stood at 0.93 nM.

Consider `CC(C)c1ccc2c(c1)c(=O)c(C(=O)NC13CC4CC(CC(C4)C1)C3)cn2CCN1CCS(=O)(=O)CC1`, for which the Ki turned out to be 1930 nM.

Take `COCCOCn1cc(C(=O)NC23CC4CC(CC(C4)C2)C3)c(=O)c2cc(C(C)C)ccc21`: the Ki was determined as 480 nM.

On to `COc1ccc(CNC(=O)c2c(O)c3cc(-c4cccs4)ccc3n(CCCCO)c2=O)cc1`, for which the Ki was 2240 nM.

For the molecule `COCCOCn1cc(C(=O)NC23CC4CC(CC(C4)C2)C3)c(=O)c2ccc(F)cc21`, the inhibitory constant (Ki) turned out to be 56 nM.

In the case of `CC(C)c1cc2c(=O)c(C(=O)NC34CC5CC(CC(C5)C3)C4)cn(CCN(C)C)c2cc1F`, the Ki was found to be 11 nM.

`CCCCCn1c(=O)c(C(=O)NCc2ccc(OC)cc2)c(O)c2cc(-c3cccs3)ccc21`: the Ki came out at 20 nM.

For `CCCCCn1c(=O)c(C(=O)NC23CC4CC(CC(C4)C2)C3)c(O)c2cc(C(C)C)c(F)cc21`, the Ki turned out to be 66 nM.
